Source: patent US20240091242A1, “LIPIDS THAT REDUCE LUNG DAMAGE, IMPROVE PULMONARY FUNCTION AND DECREASE PRO-INFLAMMATORY CYTOKINES” (Signpath Pharma, Inc., priority 2021, published 2024)

System: pro-inflammatory cytokines in the BALF
Test: Multiplex analysis of cytokine levels in BALF, murine LPS ARDS model
Type: in vivo, mouse
Conditions: for IL1-alpha level in BALF / IP-10 level in BALF / MIG level in BALF: in pg/mL (unit assumed)
Text: C57B16/N mice were obtained from Charles River Laboratories (Montreal, Quebec). Male mice, 20-25 g of body weight, were used throughout the studies. Animals were housed in specific pathogen[…]free conditions, and all experiments were approved by Institutional Animal Care and Use Committee (IPST_SL20200402-1). Animal studies are reported in compliance with […] guidelines.
All delivered mice were kept for one week as an acclimatization period prior to performing any experiments. Animals were housed in a maximum of two mice per cage under a 12[…]h light/12[…]h dark cycle at a temperature of ˜20-22° C. and 40-60% humidity. Food and water were available ad libitum. Each cage of mice was blindly assigned for different treatments or maintained as a control group according to the experimental design. The individual who carried out the experiments was not blinded as to treatment, but data analysis and experiments were otherwise blinded to avoid any bias.
In the ARDS group, mice received Escherichia coli O111:B4 lipopolysaccharide (50 μg in 0.05 mL saline, i.t.), while, in the control group, the animals received an instillation of saline (0.05 mL, i.t.). For intratracheal instillation, mice were slightly anesthetized with isoflurane.
The lipid SPPCT-800 was dissolved in water (low dose—2 mg/ml; high dose—20 mg/ml). For the 24-hour study, two treatment approaches were used. Mice received a single dose of SPPCT-800 (200 mg/kg, per gavage) as prevention (30 minutes before the LPS instillation), or as a single dose of either 20 mg/kg or 200 mg/kg as therapy (3-hour after the LPS instillation). For the 72-hour study, mice received a total of 8 treatments of SPPCT-800 (200 mg/kg) starting at 3-hour after the LPS instillation. Disease progression in mice was assessed by the evaluation of pulmonary functions, blood oxygen saturation, and body weight change. On the terminal day of each study (24 hours or 72 hours), measurement of cytokine levels in the plasma and BALF, and histopathology evaluations were done.
Differential Cell Counts in BALF. The left lung was clamped while 0.9 mL of cold PBS 1×, Protease Inhibitor 1× (SigmaFast®) solution (3×300 μL) was injected so bronchoalveolar lavage fluid (BALF) from the right lobe of the lungs could be collected. The protein assay was performed according to the manufacturer's instruction BCA Protein Assay (Pierce™-#23227). Briefly, a dilution factor of 5 was used (1 part of BALF: 4 part of PBS 1×). 10 μL, of the diluted sample was added into the microplate wells. 200 μL of the working reagent was added into each well. The plate was covered, incubated at 37° C. for 30 minutes. After a cool-down period, the absorbance at 562 nm was rapidly measured using a monochromatic spectrophotometer (SpectraMAX ® plus—Molecular Devices). The total BALF protein content was reported by multiplying the protein concentration by the dilution factor, and then multiplying by the total of BALF volume collected.
Multiplex analysis of mediators. The inventors quantified 31 different mediators in the BALF and plasma by using a Discovery Assay® (Mouse Cytokine and Chemokine Array 31-Plex (MD31), Eve Technologies Corp, Calgary, AB, Canada). The multiplex assay was performed at Eve Technologies using the Bio-Plex™ 200 system (Bio-Rad Laboratories, Inc., Hercules, CA, USA) and a Milliplex Mouse Cytokine/Chemokine kit (Millipore, St. Charles, MO, USA) according to Eve Tech protocol. The 31-plex consisted of Eotaxin, G-CSF, GM-CSF, IFN-γ, IL-1α, IL-1β, IL-2, IL-3, IL-4, IL-5, IL-6, IL-7, IL-9, IL-10, IL-12 (p40), IL-12 (p70), IL-13, IL-15, IL-17, IP-10, KC, LIF, MCP-1, M-CSF, MIG, MIP-1α, MIP-1β, MIP-2,RANTES, TNFα, and VEGF. The assay sensitivities of these markers range from 0.1 pg/mL to 33.3 pg/mL. Individual analytes' values and other assay details are available on Eve Technologies' website and in the Milliplex protocol.
Statistical Analysis. Results are expressed as means±SEM. […]

[1] = 24-hours, Pre: SPP4040 30 minutes before LPS
[2] = 24-hours, Thera: SPP4040 3 hours after LPS
[3] = 72-hours, Thera: eight SPP4040 injections over 72 hours after LPS

## CCCCCCCCCCCCCC(=O)OCC(COP(=O)([O-])OCC(COC(=O)CCC)OC(=O)CCC)OC(=O)CCCCCCCCCCCCC.CCCCCCCCCCCCCC(=O)OCC(COP(=O)([O-])OCC(COC(=O)CCC)OC(=O)CCC)OC(=O)CCCCCCCCCCCCC.[Mg+2] (stereo not shown) [SPPCT-800]
[1]
  Eotaxin level in BALF: 10 ± 1
  G-CSF level in BALF: 6468 ± 381
  GM-CSF level in BALF: 26 ± 5
  IFN gamma level in BALF: 2 ± 1
  IL1-beta level in BALF: 69 ± 9
  IL2 level in BALF: 1.5 ± 0.2
  IL3 level in BALF: 0.4 ± 0.1
  IL4 level in BALF: 0.08 ± 0.01
  IL5 level in BALF: 10 ± 3
  IL6 level in BALF: 856 ± 188
  IL7 level in BALF: 1.7 ± 0.3
  IL9 level in BALF: 7.0 ± 0.3
  IL10 level in BALF: 1.4 ± 0.3
  IL12 (p40) level in BALF: 1.6 ± 0.3
  IL12 (p70) level in BALF: 7.4 ± 1.0
  IL13 level in BALF: 0.7 ± 0.1
  IL15 level in BALF: 5.1 ± 0.8
  IL17 level in BALF: 8.3 ± 3.2
  KC level in BALF: 622 ± 89
  LIF level in BALF: 38 ± 8
  LIX level in BALF: 94 ± 6
  M-CSF level in BALF: 21 ± 3
  MCP-1 level in BALF: 462 ± 103
  MIP-1alpha level in BALF: 323 ± 52
  MIP-1beta level in BALF: 801 ± 208
  MIP-2 level in BALF: 771 ± 107
  RANTES level in BALF: 45 ± 6
  TNF-alpha level in BALF: 91 ± 32
  VEGF level in BALF: 33 ± 2
  IL1-alpha level in BALF: 183 ± 25
  IP-10 level in BALF: 125 ± 10
  MIG level in BALF: 6.8 ± 1.5
[2]
  Eotaxin level in BALF: 14 ± 3
  G-CSF level in BALF: 7060 ± 853
  GM-CSF level in BALF: 46 ± 9
  IFN gamma level in BALF: 3 ± 1
  IL1-beta level in BALF: 103 ± 18
  IL2 level in BALF: 1.5 ± 0.3
  IL3 level in BALF: 0.5 ± 0.1
  IL4 level in BALF: 0.10 ± 0.01
  IL5 level in BALF: 10 ± 2
  IL6 level in BALF: 850 ± 212
  IL7 level in BALF: 1.7 ± 0.2
  IL9 level in BALF: 8.8 ± 1.3
  IL10 level in BALF: 1.4 ± 0.3
  IL12 (p40) level in BALF: 2.0 ± 0.3
  IL12 (p70) level in BALF: 6.0 ± 1.0
  IL13 level in BALF: 1.1 ± 0.2
  IL15 level in BALF: 3.1 ± 0.7
  IL17 level in BALF: 13.6 ± 5.6
  KC level in BALF: 1017 ± 140
  LIF level in BALF: 39 ± 12
  LIX level in BALF: 67 ± 20
  M-CSF level in BALF: 27 ± 6
  MCP-1 level in BALF: 494 ± 103
  MIP-1alpha level in BALF: 564 ± 132
  MIP-1beta level in BALF: 1924 ± 812
  MIP-2 level in BALF: 1054 ± 106
  RANTES level in BALF: 46 ± 6
  TNF-alpha level in BALF: 153 ± 32
  VEGF level in BALF: 34 ± 2
  IL1-alpha level in BALF: 331 ± 67
  IP-10 level in BALF: 163 ± 33
  MIG level in BALF: 6.6 ± 2.0
72-hour study, p=0.0613
  TNF-α levels in the BALF (in words): markedly reduced
[3]
  Eotaxin level in BALF: 6 ± 2
  G-CSF level in BALF: 1233 ± 572
  GM-CSF level in BALF: 9 ± 1
  IFN gamma level in BALF: 12 ± 1
  IL1-beta level in BALF: 89 ± 24
  IL2 level in BALF: 1.7 ± 0.4
  IL3 level in BALF: 0.5 ± 0.2
  IL4 level in BALF: 0.24 ± 0.05
  IL5 level in BALF: 0.4 ± 0.1
  IL6 level in BALF: 276 ± 151
  IL7 level in BALF: 2.0 ± 0.5
  IL9 level in BALF: 8.5 ± 1.6
  IL10 level in BALF: 1.1 ± 0.5
  IL12 (p40) level in BALF: 6.0 ± 1.2
  IL12 (p70) level in BALF: 15.7 ± 3.9
  IL13 level in BALF: 1.1 ± 0.2
  IL15 level in BALF: 4.8 ± 2.6
  IL17 level in BALF: 53.2 ± 26.9
  KC level in BALF: 216 ± 15
  LIF level in BALF: 11 ± 7
  LIX level in BALF: 25 ± 18
  M-CSF level in BALF: 11 ± 1
  MCP-1 level in BALF: 84 ± 34
  MIP-1alpha level in BALF: 1676 ± 554
  MIP-1beta level in BALF: 1561 ± 440
  MIP-2 level in BALF: 2649 ± 898
  RANTES level in BALF: 57 ± 20
  TNF-alpha level in BALF: 62 ± 17
  VEGF level in BALF: 11 ± 3
  IL1-alpha level in BALF: 576 ± 169
  IP-10 level in BALF: 1583 ± 385
  MIG level in BALF: 749.7 ± 186.7
At 24 hours
  MIP-1α and MIP 1-β in the BALF (in words): Suppressive effects
At 24 hours, 200 mg/kg preventive, 20 mg/kg therapeutic and 200 mg/kg therapeutic, P<0.001
  GM-CSF in the BALF (in words): highly significant depressions
At 24 hours, P<0.001
  IFN-γ levels in the BALF (in words): profoundly depressed
At 24 hours, P=0.0959
  TNF-α in the BALF (in words): markedly reduced
At 24 hours, with the exception of IL-6
  IL-1β, IL-2, IL-3, IL-4, IL-5, IL-7, IL-9, IL-10, IL-12 (p40), IL-12 (p70), IL-13 and IL-15 in the BALF (in words): major reductions
At 72 hours
  IFN-γ levels in the BALF (in words): Large reductions
  MCP-1 in the BALF (in words): inhibited
At 72 hours, P<0.001
  GM-CSF in the BALF (in words): significant decreases
mouse, in vivo
  G-CSF, VEGF, KC, LIF, LIX and M-CSF in the BALF (in words): suppressed
